Strand notation (5' to 3'): a small letter for the sugar, then the base; units joined by * are phosphorothioate-linked, units joined directly phosphodiester-linked; [ ] holds rarer units or linkages, { } end groups; capitals alone tell only the bases. k = constrained ethyl (cEt); [5mC] = 5-methylcytosine; d = 2'-deoxy (DNA)
Tested on: human SMAD7 mRNA
Test: Antisense inhibition of human SMAD7 mRNA expression in Hep3B cells by 3-10-3 cEt gapmers, 10,000 nM, electroporation (Example 2)
Type: cell-based
Details: Hep3B cells, approximately 24 hours; for % inhibition of SMAD7 mRNA expression: electroporation, 10,000 nM antisense oligonucleotide, RTS5062, relative to untreated control cells; for % Inhibition: electroporation with 10,000 nM antisense oligonucleotide, RTS5062, percent inhibition of SMAD7 mRNA relative to untreated control cells
How it was run: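 qRT-PCR (RTS5062) of SMAD7 mRNA, normalised to RIBOGREEN total RNA, gave percent inhibition relative to untreated controls. Hep3B cells at 20,000 per well received 10,000 nM oligonucleotide by electroporation, with ~24 h treatment.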

Substance | % inhibition of SMAD7 mRNA expression | % Inhibition
799599 (k[5mC]*k[5mC]*kA*dA*d[5mC]*dT*d[5mC]*dT*dG*dA*dA*d[5mC]*dG*kG*kA*kA; antisense) [compound 799599] | 12% | –
799600 (kG*k[5mC]*kA*d[5mC]*d[5mC]*dA*dA*d[5mC]*dT*d[5mC]*dT*dG*dA*kA*k[5mC]*kG; antisense) [compound 799600] | 63% | –
799601 (kG*kA*kA*dT*dA*d[5mC]*dA*d[5mC]*dT*dG*d[5mC]*dA*d[5mC]*k[5mC]*kA*kA; antisense) [compound 799601] | 48% | –
799602 (k[5mC]*k[5mC]*kA*dT*dT*dA*dT*dG*dA*dA*dT*dA*d[5mC]*kA*k[5mC]*kT; antisense) [compound 799602] | 51% | –
799603 (kG*k[5mC]*k[5mC]*d[5mC]*dA*dT*dT*dA*dT*dG*dA*dA*dT*kA*k[5mC]*kA; antisense) [compound 799603] | – | 52%
799604 (k[5mC]*kA*kT*d[5mC]*dA*d[5mC]*d[5mC]*dT*d[5mC]*d[5mC]*d[5mC]*d[5mC]*dT*k[5mC]*k[5mC]*kA; antisense) [compound 799604] | – | 0%
799606 (kT*kT*kT*dA*d[5mC]*dA*dA*dA*dA*d[5mC]*dT*d[5mC]*dT*k[5mC]*kT*kG; antisense) [compound 799606] | – | 50%
799609 (k[5mC]*k[5mC]*k[5mC]*d[5mC]*dA*dT*dG*dG*dA*dA*d[5mC]*dG*dA*kT*k[5mC]*kA; antisense) [compound 799609] | – | 41%
799610 (kG*kG*kG*dA*dG*dA*dA*dA*d[5mC]*dT*d[5mC]*d[5mC]*dT*k[5mC]*kA*kG; antisense) [compound 799610] | – | 45%
799611 (kT*kG*kT*dG*dA*dA*dA*dG*dA*dG*dG*d[5mC]*dT*k[5mC]*kA*kG; antisense) [compound 799611] | – | 37%
799612 (kA*kA*kA*d[5mC]*dA*dG*d[5mC]*dA*d[5mC]*dA*d[5mC]*dA*dG*kG*kG*k[5mC]; antisense) [compound 799612] | – | 50%
799613 (kT*k[5mC]*kA*d[5mC]*dA*dT*dT*d[5mC]*dG*dG*d[5mC]*dT*dG*kT*kT*kT; antisense) [compound 799613] | 17% | –
799614 (kG*kG*k[5mC]*d[5mC]*dT*dT*dT*dG*dA*dG*d[5mC]*dA*d[5mC]*kA*k[5mC]*k[5mC]; antisense) [compound 799614] | 37% | –
799615 (kG*kG*kA*dG*dA*dG*dG*dA*d[5mC]*d[5mC]*dG*dG*d[5mC]*k[5mC]*kT*kT; antisense) [compound 799615] | 24% | –
799616 (kG*kG*k[5mC]*dT*d[5mC]*d[5mC]*dT*dA*d[5mC]*d[5mC]*d[5mC]*dG*d[5mC]*k[5mC]*k[5mC]*kA; antisense) [compound 799616] | 80% | –
799617 (k[5mC]*kA*kA*d[5mC]*d[5mC]*dT*dG*d[5mC]*dA*dG*d[5mC]*d[5mC]*dA*kG*k[5mC]*kA; antisense) [compound 799617] | 50% | –
799618 (kA*kA*k[5mC]*dA*dA*dA*dG*d[5mC]*dT*dG*d[5mC]*dA*dA*kT*kG*k[5mC]; antisense) [compound 799618] | 0% | –
799619 (kA*k[5mC]*kG*dA*d[5mC]*d[5mC]*dA*dG*dG*d[5mC]*d[5mC]*dT*dG*kT*k[5mC]*kG; antisense) [compound 799619] | 9% | –
799620 (kT*kA*kA*d[5mC]*dG*dA*d[5mC]*d[5mC]*dA*dG*dG*d[5mC]*d[5mC]*kT*kG*kT; antisense) [compound 799620] | 31% | –
799621 (kT*kT*kT*d[5mC]*dA*d[5mC]*dT*dG*d[5mC]*dA*dA*dG*dT*k[5mC]*k[5mC]*k[5mC]; antisense) [compound 799621] | 49% | –
799622 (kT*kT*k[5mC]*dT*dA*dA*dA*dA*dA*dT*dG*dT*d[5mC]*k[5mC]*k[5mC]*kA; antisense) [compound 799622] | – | 45%
799623 (kT*kA*k[5mC]*dA*dA*dT*d[5mC]*dT*d[5mC]*d[5mC]*dT*dG*dG*kA*kA*kG; antisense) [compound 799623] | – | 45%
799625 (kA*kA*kT*dG*dA*dA*dA*dG*dT*dA*d[5mC]*dA*dA*kT*k[5mC]*kT; antisense) [compound 799625] | – | 31%
799626 (kA*kG*k[5mC]*dT*dT*dG*d[5mC]*dA*d[5mC]*d[5mC]*d[5mC]*dA*dG*k[5mC]*kA*kA; antisense) [compound 799626] | – | 41%
799627 (k[5mC]*kA*k[5mC]*dA*dA*dG*d[5mC]*dT*dT*dG*d[5mC]*dA*d[5mC]*k[5mC]*k[5mC]*kA; antisense) [compound 799627] | – | 48%

Substance | % inhibition of SMAD7 mRNA expression | % Inhibition
799628 (kA*k[5mC]*kA*d[5mC]*dA*d[5mC]*dA*d[5mC]*dA*dA*dG*d[5mC]*dT*kT*kG*k[5mC]; antisense) [compound 799628] | – | 38%
799629 (kT*kA*k[5mC]*dA*d[5mC]*dA*d[5mC]*dA*d[5mC]*dA*dA*dG*d[5mC]*kT*kT*kG; antisense) [compound 799629] | – | 24%
799630 (k[5mC]*k[5mC]*k[5mC]*dT*dA*dT*d[5mC]*d[5mC]*d[5mC]*dA*dG*dA*dG*k[5mC]*k[5mC]*kT; antisense) [compound 799630] | – | 43%
799632 (k[5mC]*kT*kG*d[5mC]*d[5mC]*dA*dA*dA*dT*d[5mC]*dA*d[5mC]*dA*kA*kA*kG; antisense) [compound 799632] | 48% | –
799633 (kA*kG*kA*d[5mC]*dT*dG*d[5mC]*d[5mC]*dA*dA*dA*dT*d[5mC]*kA*k[5mC]*kA; antisense) [compound 799633] | 25% | –
799634 (k[5mC]*kA*kG*dA*d[5mC]*dT*dG*d[5mC]*d[5mC]*dA*dA*dA*dT*k[5mC]*kA*k[5mC]; antisense) [compound 799634] | 23% | –
799635 (kA*k[5mC]*kA*dG*dA*d[5mC]*dT*dG*d[5mC]*d[5mC]*dA*dA*dA*kT*k[5mC]*kA; antisense) [compound 799635] | 28% | –
799636 (k[5mC]*kA*k[5mC]*dA*dG*dA*d[5mC]*dT*dG*d[5mC]*d[5mC]*dA*dA*kA*kT*k[5mC]; antisense) [compound 799636] | 55% | –
799637 (kG*k[5mC]*kA*d[5mC]*dA*dG*dA*d[5mC]*dT*dG*d[5mC]*d[5mC]*dA*kA*kA*kT; antisense) [compound 799637] | 48% | –
799638 (kA*kG*kT*d[5mC]*dA*dG*dG*d[5mC]*dA*d[5mC]*dA*dG*dA*k[5mC]*kT*kG; antisense) [compound 799638] | 53% | –
799639 (k[5mC]*k[5mC]*kA*dG*dA*dG*dA*dG*dT*d[5mC]*dA*dG*dG*k[5mC]*kA*k[5mC]; antisense) [compound 799639] | 34% | –
799640 (k[5mC]*kA*kA*dG*dG*dA*d[5mC]*d[5mC]*dT*dG*dT*dT*d[5mC]*kT*kG*kG; antisense) [compound 799640] | 40% | –
799641 (k[5mC]*kA*kT*d[5mC]*dA*dG*dA*d[5mC]*d[5mC]*dT*d[5mC]*dT*d[5mC]*k[5mC]*k[5mC]*kA; antisense) [compound 799641] | 33% | –
799642 (kG*k[5mC]*kA*dA*dA*dT*d[5mC]*d[5mC]*dT*dT*dT*d[5mC]*d[5mC]*kA*kT*k[5mC]; antisense) [compound 799642] | – | 53%
799643 (kG*kT*kG*dA*dT*d[5mC]*d[5mC]*d[5mC]*d[5mC]*dG*dG*dA*dA*kA*kG*k[5mC]; antisense) [compound 799643] | – | 26%
799644 (kT*kT*k[5mC]*d[5mC]*dA*dA*d[5mC]*dA*d[5mC]*dA*dT*dG*d[5mC]*kT*k[5mC]*kT; antisense) [compound 799644] | – | 31%
799645 (k[5mC]*kA*kA*dA*dG*dA*dT*dG*dA*dT*dA*dG*d[5mC]*kT*kT*k[5mC]; antisense) [compound 799645] | – | 45%
799646 (antisense k[5mC]*kA*kG*dA*dA*dA*d[5mC]*dT*d[5mC]*d[5mC]*dA*dG*dA*kT*kG*kG) [compound 799646] | – | 18%
799647 (antisense kA*k[5mC]*kA*dG*dA*dA*dA*d[5mC]*dT*d[5mC]*d[5mC]*dA*dG*kA*kT*kG) [compound 799647] | – | 0%
799648 (antisense kA*kT*kG*dA*dA*dA*dG*d[5mC]*d[5mC]*d[5mC]*d[5mC]*d[5mC]*dA*kG*kA*k[5mC]) [compound 799648] | – | 9%
799649 (antisense kA*kA*kA*dT*dG*dA*dA*dA*dG*d[5mC]*d[5mC]*d[5mC]*d[5mC]*k[5mC]*kA*kG) [compound 799649] | – | 53%
799650 (antisense k[5mC]*kA*kG*d[5mC]*dA*dG*dA*d[5mC]*dA*dG*dG*d[5mC]*dA*kA*kA*kA) [compound 799650] | – | 46%
799651 (antisense kA*kG*kG*dA*d[5mC]*dA*dG*d[5mC]*dA*dG*dA*d[5mC]*dA*kG*kG*k[5mC]) [compound 799651] | – | 55%
799652 (antisense kA*k[5mC]*kT*d[5mC]*dA*dA*dA*d[5mC]*d[5mC]*dA*dG*dG*dA*k[5mC]*kA*kG) [compound 799652] | 0% | –
799653 (antisense kA*k[5mC]*k[5mC]*d[5mC]*dA*d[5mC]*dT*d[5mC]*dA*dA*dA*d[5mC]*d[5mC]*kA*kG*kG) [compound 799653] | 51% | –

— patent US10517889B2, “Modulators of SMAD7 expression” (Ionis Pharmaceuticals, Inc., priority 2017, dated 2019)
